The subject of data set [1] is potato tubers. In words: Tuber sprouting after removal from exposure to volatilized aromatics for 1, 2, 4, 7 or 10 days (Example 2). Type of data set: in vivo, Solanum tuberosum L. cv `Norchip`. To be noted: 14 days after removal; for % Eyes Sprouted: 25° C., LSD (0.05) 24. The procedure: (§1) Each treatment consisted of placing the tubers in sealed 9.2 l flasks containing excess levels of the treatment compounds at 25° C. as in Example 1. Three tubers were then removed from each treatment after 1, 2, 4, 7, and 10 days, and placed in flasks containing fresh humidified air (free of any additional volatilized compounds) at 25° C. Control tubers were placed in sealed flasks lacking any added compounds and three were removed after 1 and 10 days. Fourteen days after removal from the sealed flasks containing treatment compounds, all tubers were examined for percentage of eyes sprouted, tuber texture, and fungal growth. Each treatment was replicated once and each experiment was repeated once.

Data set [2] relates to fungi. In words: Fungal growth 14 days after direct application of aromatic compounds (Example 3). Note: key: -: no fungi visible; +: = some fungi; ++: heavy fungal growth. The settings on record: control +. Type of data set: in vivo.
Experimental: (§2) Because the aromatic aldehydes and alcohols may be applied to the stored potatoes by methods other than as volatiles, direct application of the compounds either as pure chemicals or as emulsions was also studied. Emulsions were prepared as either 1% or 10% (v/v) of each compound in distilled water containing 0.05% (v/v) Tween 80 as an emulsifier (control tubers were treated with Tween 80 only). Tubers were treated by dipping each tuber in the test emulsion for 10 seconds, whereupon excess liquid was allowed to drain off. Pure compounds in liquid phase were applied with an atomizing sprayer, ensuring that the entire tuber surface was coated. Each tuber was sprayed with approximately 0.1-0.2 ml of each compound tested. Six tubers per treatment were used, with two replicates, and all experiments were repeated once.
Data set [3] concerns potato tubers. Kind of data set: Sprout inhibition of tubers exposed to compounds in headspace gas for 7 days (Example 1). The settings on record: 7 days in saturated headspace gas, 25° C.; for % Eyes Sprouted: dark, control 100, LSD (0.05) 12. It is filed as in vivo, Solanum tuberosum L. cv `Norchip`.
The subject of data set [4] is potato tubers. In words: Tuber sprouting after removal from exposure to volatilized aromatics for 1, 2, 4, 7 or 10 days (Example 2). To be noted: exposure for 10 days, 75 days after removal. It is filed as in vivo, Solanum tuberosum L. cv `Norchip`.
The test system of data set [5] is potato tubers. Kind of data set: Tuber texture and quality 14 days after direct application of aromatic compounds (Example 3). The settings on record: for Tuber Texture: control SS.
Experimental: as §2
For data set [6] the following is noted: cited from earlier work; for Temperature at Which Vapor Pressure Equals 1 mm Hg: vapor pressure 1 mm Hg.
Data set [7] is described as follows: Theoretical saturated headspace concentration calculated from known vapor pressures. It is filed as physicochemical. To be noted: calculated from known vapor pressures by Ideal Gas Law. The procedure: Because these compounds were difficult to quantitate by gas chromatography at the concentration levels in saturated headspaces, theoretical saturated concentrations were calculated by converting known vapor pressures of each compound at 25° C. to molar concentrations using the Ideal Gas Law, […], where n/V is the molar concentration, P is the partial pressure (atm), R is the Ideal Gas constant (0.0821 l atm/mol ° K.), and T is the temperature (° K.).

In data set [8] the test system is fungi. In words: Fungal growth on tubers exposed to compounds in headspace gas for 7 days (Example 1). For Fungal growth: key: -: no fungi visible; +: = some fungi; ++: heavy fungal growth. It is filed as in vivo. The text has this:
(control flasks lacked any compounds).

Data set [9] relates to fungi. Kind of data set: Fungal growth on tubers after removal from exposure to volatilized aromatics (Example 2). It is filed as in vivo. The procedure: as §1
In data set [10] the test system is potato tubers. In words: Tuber texture/quality after exposure to compounds in headspace gas for 7 days (Example 1). To be noted: 7 days in saturated headspace gas, 25° C.
Data set [11] deals with potato tubers. In words: Tuber sprouting 14 days after direct application of aromatic compounds (Example 3). Type of data set: in vivo, Solanum tuberosum L. cv `Norchip`. To be noted: for % Eyes Sprouted: 25° C., control 98, LSD (0.05) 14.
Experimental: as §2
Data set [12] relates to potato. To be noted: Aliaga and Feldheim (1985); cited from earlier work.
The mark [13] stands for this setting: 7 days in saturated headspace gas, 25° C.
[14] abbreviates: 7 days in saturated headspace gas, 25° C., control ++.
[15] abbreviates: 1 day exposure, 14 days after removal, control +.
Where [16] appears, read: 4 days exposure, 14 days after removal.
Setting [17] is: 7 days exposure, 14 days after removal.
Where [18] appears, read: 10 days exposure, 14 days after removal, control +.
Setting [19] is: 2 days exposure, 14 days after removal.

The source of these data is patent US5129951A, “Aromatic aldehydes and alcohols as potato tuber sprout inhibitors” (priority 1991, dated 1992).

For `O=CC=Cc1ccccc1` [Cinnamaldehyde], the “% Eyes Sprouted” value in data set [1] (1 day exposure, control 96) was found to be 62%; in data set [1] (2 days exposure), 80%; in [1] (4 days exposure), 64%; in data set [1] (7 days exposure) it was 24%; in data set [1] (10 days exposure, control 100), 0%; in [3], 0%. For the same compound, the “% Eyes Sprouted” value in data set [11] (1% emulsion (dip)) came out at 0%; in [11] (10% emulsion (dip)), 0%; in data set [11] (100% (pure, sprayed)) it was 0%. The figures for the “inhibition of tuber sprouting” value in data set [1] (exposure for 7 or fewer days) and in data set [1] (exposure for 10 days) were “did not completely inhibit sprouting” and “completely inhibited sprouting”, respectively. In addition, the “Fungal Growth” value in data set [2] (1% emulsion (dip)) is given as “-”; in data set [2] (100% (pure, sprayed)) it was “-”; in [8] (setting [14]) it was “-”; in data set [9] (setting [15]), “-”; in data set [9] (setting [16]), “-”; in data set [9] (setting [17]), “-”. Also, the “Fungal Growth” value in data set [9] (setting [18]) is recorded as “-”; in [9] (14 days after removal from exposure) it was “a small amount of mycelia was detected in a bruised area”. Moreover, the “effect on tuber sprouting” value in [3] is “completely inhibited sprouting”. In addition, the “sprouting” value in data set [4] is on record as “remained unsprouted”. Moreover, the “tuber condition” value was “remained hard, with no necrosis or surface pitting” in data set [5] (1% emulsion); “firm and appeared healthy” in data set [10]. For the same compound, the “Tuber Texture” value in data set [5] (10% emulsion (dip)) is “S,N”; in [5] (100% (pure, sprayed)), “S,N”. Also, the “Temperature at Which Vapor Pressure Equals 1 mm Hg” value (from here on “Temperature”) in data set [6] is 76.1 °C. For the same compound, the “Solubility in Water at 25° C.” value in data set [6] is listed as “sl. soluble”. In data set [7], the “Concentration of Saturated Headspace at 25° C.” value (from here on “Concentration”) is 1900 nM. Moreover, the “effect on fungal growth” value in [8] (setting [13]) is on record as “prevented any visible fungal growth”. Further, the “inhibition of sprouting” value in data set [11] (1% emulsion) is reported as “completely inhibited sprouting without damaging the potato tubers”.
With `CC(C)c1ccc(C=O)cc1` [Cuminaldehyde], the “% Eyes Sprouted” value in data set [1] (1 day exposure, control 96) worked out at 63%; in [1] (2 days exposure) it was 68%; in data set [1] (4 days exposure) it was 49%; in data set [1] (7 days exposure), 8%; in data set [1] (10 days exposure, control 100), 0%; in [3], 0%. Moreover, the “% Eyes Sprouted” value in [11] (1% emulsion (dip)) is 5%; in [11] (10% emulsion (dip)) it was 43%; in [11] (100% (pure, sprayed)), 0%. Also, the “inhibition of tuber sprouting” value in data set [1] (exposure for 7 or fewer days) was “did not completely inhibit sprouting”; in data set [1] (exposure for 10 days) it was “completely inhibited sprouting”. Moreover, the “Fungal Growth” value in data set [2] (1% emulsion (dip)) was “-”; in [2] (100% (pure, sprayed)) it was “-”; in data set [8] (setting [14]), “-”; in [9] (setting [15]), “-”; in data set [9] (setting [19]), “-”; in data set [9] (setting [16]) it was “-”. The “Fungal Growth” value in [9] (setting [17]) and in data set [9] (setting [18]) was “-” throughout. Besides, the “effect on tuber sprouting” value in data set [3] is recorded as “completely inhibited sprouting”. Moreover, in data set [4], the “sprouting” value is listed as “remained unsprouted”. The “Tuber Texture” value is “SS,N” in data set [5] (10% emulsion (dip)) and “SS,N” in data set [5] (100% (pure, sprayed)). Moreover, the “Temperature” value in [6] was 58.0 °C. For the same compound, in data set [6], the “Solubility in Water at 25° C.” value is recorded as “insoluble”. Also, the “Concentration” value in data set [7] was 6400 nM. In addition, in data set [8] (setting [13]), the “effect on fungal growth” value is reported as “prevented any visible fungal growth”. Besides, the “tuber condition” value in [10] is “firm and appeared healthy”.
With `CCOC(=O)C=Cc1ccccc1` [Ethyl cinnamate], in data set [3], the “effect on tuber sprouting” value is listed as “suppressed sprouting to some degree” and the “% Eyes Sprouted” value is listed as 64%. Besides, in [6], the “Temperature” value is 87.6 °C and the “Solubility in Water at 25° C.” value is recorded as “insoluble”. The “Concentration” value in data set [7] is 700 nM. In addition, the “Fungal Growth” value in [8] (setting [14]) is listed as “+”.
Consider `C=CCc1ccc(O)c(OC)c1` [Eugenol, reference compound], for which the “Fungal Growth” value in data set [2] (1% emulsion (dip)) is “++”; in data set [2] (100% (pure, sprayed)), “-”; in data set [8] (setting [14]), “++”. Also, the “effect on tuber sprouting” value in data set [3] is “no significant effect on tuber sprouting”. Besides, the “% Eyes Sprouted” value in [3] is recorded as 94%; in [11] (1% emulsion (dip)) it was 32%; in data set [11] (10% emulsion (dip)) it was 7%; in [11] (100% (pure, sprayed)), 0%. For the same compound, the “Tuber Texture” value in data set [5] (10% emulsion (dip)) is listed as “SS,N”; in data set [5] (100% (pure, sprayed)), “S,N”. Besides, the “Temperature” value in data set [6] was 78.4 °C. Besides, the “Concentration” value in data set [7] was 1600 nM. For the same compound, the “effect on fungal growth” value in [8] (setting [13]) is “especially heavy growth”. The “tuber condition” value in data set [10] was “remained firm”.
Consider `O=CCCc1ccccc1` [Hydrocinnamaldehyde, 3-phenyl-propanal], for which the “% Eyes Sprouted” value in data set [1] (1 day exposure, control 96) is listed as 90%; in data set [1] (2 days exposure), 79%; in data set [1] (4 days exposure) it was 66%; in data set [1] (7 days exposure) it was 51%; in [1] (10 days exposure, control 100) it was 24%; in data set [3] it was 0%. In addition, the “% Eyes Sprouted” value was 25% in data set [11] (1% emulsion (dip)); 0% in [11] (10% emulsion (dip)); 0% in [11] (100% (pure, sprayed)). Also, the “Fungal Growth” value in data set [2] (1% emulsion (dip)) is recorded as “-”; in data set [2] (10% emulsion (dip)) it was “++”; in [2] (100% (pure, sprayed)) it was “-”; in data set [8] (setting [14]), “-”; in data set [9] (setting [15]), “-”; in data set [9] (setting [19]), “-”. The “Fungal Growth” value in data set [9] (setting [16]), in [9] (setting [17]) and in data set [9] (setting [18]) was “-” throughout. In addition, in data set [3], the “effect on tuber sprouting” value was “completely inhibited sprouting”. Also, the “Tuber Texture” value in data set [5] (10% emulsion (dip)) is listed as “S”; in data set [5] (100% (pure, sprayed)), “S,N”. Further, the “Solubility in Water at 25° C.” value in [6] is reported as “sl. soluble”. In addition, in [8] (setting [13]), the “effect on fungal growth” value was “prevented any visible fungal growth”. In addition, the “tuber condition” value in data set [10] is “firm and appeared healthy”.
With `COC(=O)C=Cc1ccccc1` [Methyl cinnamate], in data set [3], the “effect on tuber sprouting” value is “suppressed sprouting to some degree” and the “% Eyes Sprouted” value came to 16%. For the same compound, in data set [6], the “Temperature” value is 77.4 °C and the “Solubility in Water at 25° C.” value is “insoluble”. Further, the “Concentration” value in data set [7] is 1600 nM. For the same compound, the “effect on fungal growth” value in [8] (setting [13]) is reported as “suppressed fungal growth”. Moreover, the “Fungal Growth” value in data set [8] (setting [14]) is recorded as “-”.
Consider `Oc1ccccc1` [Phenol], for which, in [3], the “effect on tuber sprouting” value is “completely inhibited sprouting” and the “% Eyes Sprouted” value was determined as 0%. Moreover, the “Temperature” value in data set [6] is 40.1 °C. In [7], the “Concentration” value is 21000 nM. In data set [8] (in vivo), the “Fungal Growth” value is “-” and the “effect on fungal growth” value is reported as “prevented any visible fungal growth”. In [10], the “tuber condition” value was “blackened, soft to the touch, and displayed evident tissue necrosis”. Also, the “Tuber Texture” value in data set [10] (control SS) was “S,N”.
Regarding `C=C(C)C1CC=C(C)CC1` (centres unmarked) [limonene], the “effectiveness of main oil components in inhibiting sprouting, weight loss and rot” value in data set [12] is listed as “effective”.
Take `CC1CCC(C(C)C)C(=O)C1` (centres unmarked) [menthone/isomenthone]: in data set [12], the “effectiveness of main oil components in inhibiting sprouting, weight loss and rot” value is “effective”.
Turning to `CC(C)=C1CC[C@@H](C)CC1=O` [pulegone], the “effectiveness of main oil components in inhibiting sprouting, weight loss and rot” value in data set [12] is “effective”.
For the compound `CC1=CCC2CC1C2(C)C` (stereo not drawn) [α-pinene], the “effectiveness of main oil components in inhibiting sprouting, weight loss and rot” value in data set [12] is on record as “effective”.
Turning to `C=C1CCC2CC1C2(C)C` (stereo not drawn) [β-pinene], in data set [12], the “effectiveness of main oil components in inhibiting sprouting, weight loss and rot” value is given as “effective”.
